Measurements as given in US6423823B1, “Organic chemical compounds and method for producing the same” (Bayer Aktiengesellschaft, priority 1997, dated 2002).
Numbered stars: 1 amine (or outer) side, 2 acyl side, 3 side chain; on linkers, the order of the positions; unused ones are H or OH. Square brackets hold non-standard residues; d marks the D form. Peptide text beside a SMILES is read from it. ξ: configuration not given here. X1 = CC(OC(=O)CC(C)(C)O)C(C)C(C(=O)[*:2])N(C)[*:1]; X4 = CC(=O)OC(C)C(C)C(C(=O)[*:2])N(C)[*:1]; X3 = O=C(C1CC2(O)c3ccccc3NC2N1[*:1])[*:2]; ξNMeVal(3-OH) = CNC(C(=O)O)C(C)(C)O; NMeξGly(OAc) = CNC(OC(C)=O)C(=O)O; NMeI = CC[CH](C)[CH](NC)C(=O)O; X2 = CN(C(O)C(=O)[*:2])[*:1]; NMeV = CN[CH](C(=O)O)C(C)C; Sar = CNCC(=O)O

Legend:
[1] = test system: Meloidogyne incognita; test: Nematicidal activity on phytopathogenic nematodes in 24-well tissue culture plates; details: lethal dose for 90% of the nematode population, second larval stage, after 16 hours
Experimental: (§1) Test nematode: Meloidogyne incognita
Test method: The test substances are dissolved in methanol and pipetted into the wells of tissue culture plates (24-well tray). The solvent is evaporated, and 400 μl of nematode suspension are then added to each well of the tissue culture plate. The number of nematodes is 100 larvae of the second larval stage/400 μl . To promote the solubility of the samples in aqueous medium, the plate is shaken at 100 rpm for 15 minutes, and a first microscopic control is then carried out. After 16 hours, the percentage of dead larvae is determined and stated as LD90 (lethal dose for 90% of the nematode population).

[2] = test system: Trichinella spiralis; test: In vitro test against Trichinella spiralis; details: concentration of 1 μg/ml
Experimental: The test was carried out according to the test description in the publication Plant et al. (1996) Pesticide Science 48: 351-358.

[3] = test system: Meloidogyne incognita; test: Effect on nematodes in the greenhouse (test crop: cucumbers); assay type: in vivo; details: for Efficacy in %: cucumber plants, after 14 days, 100% = no galls formed; for Number of galls/plant: poured onto cucumber plants, evaluation after 14 days
Experimental: as §1
Test method: In each case two cucumber plants (variety Bella F1) are grown in a soil-leaf mixture in pots of the dimensions 7×7×6 cm. The test substances are, in the appropriate concentrations, dissolved in methanol and then diluted in water and then poured onto the cucumber plants, which are about 14 days old. Per drip, 10 ml of solution are poured on. 3 hours after the treatment, about 500 nematodes are pipetted as a suspension onto each pot. The pots are incubated in a greenhouse at a day temperature of about 26° C. and a night temperature of 20° C. After 14 days, evaluation is carried out by washing out the roots and determining the galls formed per plant.
The efficacy of the test substance is 100% if no galls have been formed, and it is 0% if the same number of galls have been formed as in the control.

[4] = test system: Heterakis spumosa; test: In vivo mouse model, intestinal nematode; details: dosage of 50 mg/kg
Experimental: In the in vivo mouse model, omphalotin B has full activity against the intestinal nematode Heterakis spumosa at a dosage of 50 mg/kg. The test is described in the above publication.

[5] = test system: Plutella xylostella; test: Insecticidal leaf disc test (savoy cabbage); assay type: in vivo; details: lethal dose for 100% of the larvae tested, third larval stage, after 72 hours
Experimental: Test insect: Plutella xylostella
(§2) Test method: Using a cork borer, 2 discs having a diameter of 10 mm are punched out of savoy cabbage leaves and placed in a Petri dish (diameter 5.5 cm, Greiner). The test substance is pipetted onto the leaf discs and, after the solvent has evaporated, a filter disc (diameter 13 mm, Schleicher und Schüll) saturated in water and 2 freshly hatched larvae of the third larval stage are added. The larvae are placed next to the leaf discs. The experiment is incubated at 24° C. After 48 hours, an untreated savoy cabbage disc (10 mm Ø) is added. The feed behaviour and the state of the larvae are evaluated after 24, 48 and 72 hours. Per test concentration, 2 experiments and 3 repetitions are carried out. The insecticidal effect is stated as LD100 (lethal dose for 100% of the larvae tested) after 72 hours.

[6] = test system: Spodoptera frugiperda; test: Insecticidal maize leaf test; assay type: in vivo; details: lethal dose for 50% of larvae, third larval stage, after 72 hours
Experimental: Test Insect: Spodoptera frugiperda
Test method: A rectangle (1.5×2 cm) cut from maize leaves (8-10 day-old plant, variety Golda) is placed in a Petri dish (diameter 5.5 cm, Greiner). The test substance, as a methanolic solution, is applied to the maize leaf and, after the solvent has evaporated, a filter disc (diameter 13 mm, Schleicher und Schüll) saturated with water and a larva of the third larval stage are added. The larva is placed next to the piece of leaf. The experiment is incubated at 24° C. After 48 hours, untreated maize (1.5×2 cm) is added. The feed behaviour and the state of the larvae are evaluated after 24, 48 and 72 hours. Per test concentration, 4 experiments and 3 repetitions are carried out. The insecticidal effect is stated as LD50 (lethal dose for 50% of larvae) after 72 hours.

[7] = test system: Phaedon cochleariae; test: Insecticidal leaf disc test (savoy cabbage); assay type: in vivo; details: lethal dose for 100% of the larvae tested, third larval stage, after 96 hours
Experimental: Test insect: Phaedon cochleariae
as §2, with “und Schull)” for “und Schüll)”, “24, 48, 72” for “24, 48”, “and 96” for “and 72”, “after 96” for “after 72”

CCC(C)C1NC(=O)C(C(C)C)N(C)C(=O)C2CC3(O)c4ccccc4NC3N2C(=O)CN(C)C(=O)C(C(C)CC)N(C)C(=O)C(C(C)C)NC(=O)C(O)N(C)C(=O)C(C(C)C(C)OC(=O)CC(C)(C)O)N(C)C(=O)C(C(C)(C)O)N(C)C(=O)CN(C)C(=O)C(C(C)C)N(C)C(=O)C(C(C)C)N(C)C1=O (centres unmarked) [Omphalotin B] (cyclo([Sar][ξNMeVal(3-OH)][X1][X2]V[NMeI][Sar][X3][NMeV]I[NMeV][NMeV]); configuration not given here)
Nematicidal activity against Meloidogyne incognita LD90 [1]: 2.5 µg/mL | Effect against Trichinella spiralis in vitro [2]: full effect | Efficacy in % ([3]; 2 ppm): 99% | Number of galls/plant ([3]; 2 ppm): 1 | Efficacy in % ([3]; 5 ppm): 100% | Number of galls/plant ([3]; 5 ppm): 0 | Activity against the intestinal nematode Heterakis spumosa [4]: full activity

CCC(C)C1NC(=O)C(C(C)C)N(C)C(=O)C2CC3(O)c4ccccc4NC3N2C(=O)CN(C)C(=O)C(C(C)CC)N(C)C(=O)C(C(C)C)NC(=O)C(OC(C)=O)N(C)C(=O)C(C(C)C(C)OC(C)=O)N(C)C(=O)C(C(C)(C)O)N(C)C(=O)CN(C)C(=O)C(C(C)C)N(C)C(=O)C(C(C)C)N(C)C1=O (centres unmarked) [Omphalotin D] (cyclo([Sar][ξNMeVal(3-OH)][X4][NMeξGly(OAc)]V[NMeI][Sar][X3][NMeV]I[NMeV][NMeV]); configuration not given here)
Insecticidal activity against Plutella xylostella LD100 [5]: 100 μg/leaf disc | Insecticidal activity against Spodoptera frugiperda LD50 [6]: 80 μg/maize leaf | Nematicidal activity against Meloidogyne incognita LD90 [1]: 4 µg/mL | Insecticidal activity against Phaedon cochleariae LD100 [7]: 100 μg/leaf disc

CCC(C)C1NC(=O)C(C(C)C)N(C)C(=O)C2CC3(O)c4ccccc4NC3N2C(=O)CN(C)C(=O)C(C(C)CC)N(C)C(=O)C(C(C)C)NC(=O)C(OC(C)=O)N(C)C(=O)C(C(C)C(C)OC(=O)CC(C)(C)O)N(C)C(=O)C(C(C)(C)O)N(C)C(=O)CN(C)C(=O)C(C(C)C)N(C)C(=O)C(C(C)C)N(C)C1=O (centres unmarked) [Omphalotin C] (cyclo([Sar][ξNMeVal(3-OH)][X1][NMeξGly(OAc)]V[NMeI][Sar][X3][NMeV]I[NMeV][NMeV]); configuration not given here)
Insecticidal activity against Spodoptera frugiperda LD50 [6]: 100 μg/maize leaf | Nematicidal activity against Meloidogyne incognita LD90 [1]: 1 µg/mL | Efficacy in % ([3]; 2 ppm): 99% | Number of galls/plant ([3]; 2 ppm): 1 | Efficacy in % ([3]; 5 ppm): 100% | Number of galls/plant ([3]; 5 ppm): 0
